The values that follow come from ChEMBL document CHEMBL1201862, “PubChem BioAssay data set” (2004).

Experiment in all cases: inhibition of tumour cell growth, NCI panel, 48 h
Assay [1] has as its system COLO 205.
The subject of assay [2] is M14.
Assay [3] has as its system HOP-92.
The subject of assay [4] is HT-29.
Assay [5] has as its system UACC-62.
The test system of assay [6] is SF-539.
In assay [7] the test system is HCT-15.
Assay [8] deals with U-251.
Assay [9] concerns RPMI-8226.
Assay [10] relates to HCC 2998.
Assay [11] concerns MOLT-4.
For assay [12], the system named is NCI-H460.
Assay [13] deals with NCI-H522.
In assay [14] the test system is NCI-H23.
The test system of assay [15] is IGROV-1.
The subject of assay [16] is SK-MEL-28.
In assay [17] the test system is EKVX.
For assay [18], the system named is OVCAR-5.
The test system of assay [19] is UO-31.
Assay [20] relates to MCF7.

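Exposure lasted 48 hours, with cells grown in 96-well plates and compounds tested at five concentrations. The concentration for 50% growth inhibition is given as GI50.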 Calls of active or inactive are those of the source. No stated cut-off is given here; in the data, active = GI50 up to about 1.1 µM and inactive = higher. Where only a bound is given, the exact number is not on record here.

Take `CC(C)(C)N1C(C(=O)c2ccccc2)C1c1ccccc1` (centres undefined): the GI50 in assay [1], in [2], in assay [3], in assay [4], in assay [5] and in assay [6] was > 100 µM (inactive) throughout. The GI50 in assay [7] is more than 100 µM; in assay [8], > 100 µM (inactive); in assay [9] it was > 100 µM (inactive); in assay [10], > 100 µM (inactive); in assay [11], > 100 µM (inactive); in assay [12], > 100 µM (inactive). Besides, the GI50 in assay [13], in assay [14], in assay [15], in assay [16] and in [17] was > 100 µM (inactive) each time.

Take `Cc1nc2c(sc(=S)n2-c2ccccc2)c(=O)[nH]1`: the GI50 in assay [1], in assay [3], in assay [4], in assay [5], in assay [6] and in assay [8] was > 100 µM (inactive) in each case. The GI50 in assay [9], in [10], in assay [11], in [12], in assay [18] and in assay [13] was > 100 µM (inactive) throughout. The GI50 in [14], in [19], in [15] and in assay [16] was > 100 µM (inactive) in each case.

With `c1c2c(cc(-n3nnc4c3CCCCCC4)c1-n1nnc3c1CCCCCC3)CCCCCC2`, the GI50 in assay [2] is 13.7 µM (inactive); in assay [3], 3.28 µM (inactive); in assay [4], 6.93 µM (inactive); in assay [5] it was 12.4 µM (inactive); in assay [7], 5.19 µM; in assay [8], 10.1 µM (inactive). For the same compound, the GI50 in assay [10] is 12.8 µM (inactive); in [11], 2.57 µM (inactive); in [12], 6.3 µM (inactive); in assay [18], 15.8 µM (inactive); in assay [13] it was 0.485 µM (active); in [14] it was > 10 µM (inactive). Moreover, the GI50 was 5.4 µM (inactive) in assay [19], 18.3 µM (inactive) in assay [15], 17.2 µM (inactive) in [16] and 10.7 µM (inactive) in [17].

`CCCCCCCCC(O)c1ccc(/C=C\C(O)CCCC(=O)O)s1` (centres undefined): the GI50 in assay [1], in assay [2], in assay [3], in assay [4], in assay [5] and in assay [6] was > 100 µM (inactive) in each case. In addition, the GI50 in assay [7] is more than 100 µM; in assay [8], > 100 µM (inactive); in assay [9] it was > 100 µM (inactive); in assay [10], > 100 µM (inactive); in assay [11] it was > 100 µM (inactive); in assay [12], > 100 µM (inactive). Also, the GI50 in assay [18], in assay [13], in [14], in assay [19], in assay [15] and in [16] was > 100 µM (inactive) in each case. Moreover, the GI50 in assay [17] was > 100 µM (inactive).

For `COc1ccccc1C1C(Cl)C(=O)N1n1cnc2ccccc2c1=O` (centres undefined), the GI50 is > 100 µM (inactive) in [1]; > 100 µM (inactive) in assay [2]; > 100 µM (inactive) in assay [4]; > 100 µM (inactive) in assay [5]; more than 100 µM in assay [7]; 48.3 µM (inactive) in [8]. The GI50 in [9], in [10], in assay [11], in assay [12], in [18] and in assay [13] was > 100 µM (inactive) throughout. The GI50 in assay [14] is > 100 µM (inactive); in [19], 45.6 µM (inactive); in assay [15], > 100 µM (inactive); in assay [16], > 100 µM (inactive); in assay [17], > 100 µM (inactive).

Consider `COc1cc(C2C(C(=O)O)=C(COC(C)=O)Oc3cc4c(cc32)OCO4)cc(OC)c1OC` (centres undefined), for which the GI50 in [1] is > 100 µM (inactive); in [2], > 100 µM (inactive); in assay [4], > 100 µM (inactive); in assay [5], > 100 µM (inactive); in assay [7] it was more than 100 µM; in assay [8], > 100 µM (inactive). The GI50 in assay [9], in assay [11], in assay [12], in assay [18], in [14] and in assay [19] was > 100 µM (inactive) in each case. The GI50 in [15], in assay [16] and in assay [17] was > 100 µM (inactive) throughout.

In the case of `O=C1CCCC(=O)N1CCc1c[nH]c2ccccc12`, the GI50 in assay [2], in assay [3], in [4], in assay [5], in assay [6] and in assay [8] was > 100 µM (inactive) each time. Besides, the GI50 in assay [10], in [11], in [12], in assay [18], in assay [14] and in [19] was > 100 µM (inactive) each time. Moreover, the GI50 in assay [15], in [16] and in [17] was > 100 µM (inactive) throughout.

`Fc1ccccc1C1CC(C(c2ccccc2)c2ccccc2)=Nc2ccccc2S1` (centres undefined): the GI50 is 14.8 µM (inactive) in assay [1]; 11.9 µM (inactive) in assay [2]; 5.61 µM (inactive) in assay [4]; 3.27 µM (inactive) in assay [5]; 21.9 µM (inactive) in assay [6]; 5.78 µM in [7]. Moreover, the GI50 is 12.6 µM (inactive) in assay [8]; 3.6 µM (inactive) in assay [9]; 5.35 µM (inactive) in assay [10]; 2.71 µM (inactive) in assay [11]; 4.89 µM (inactive) in assay [12]; 12.1 µM (inactive) in assay [18]. Also, the GI50 in assay [13] is 6.79 µM (inactive); in assay [14], 5.89 µM (inactive); in assay [19], 14 µM (inactive); in assay [15], 6.95 µM (inactive); in [16], 12.6 µM (inactive); in [17] it was 10.3 µM (inactive).

On to `Cc1cc2c(cc1C)N1Cc3c(ccc(C)c3C)N(C2)C1.Cc1cc2c(cc1C)N1Cc3cc(C)c(C)cc3N(C2)C1`, for which the GI50 in assay [1], in assay [2], in [4], in assay [5], in assay [6] and in assay [8] was > 100 µM (inactive) throughout. Moreover, the GI50 in assay [9] was > 100 µM (inactive); in assay [10], > 100 µM (inactive); in assay [11], > 100 µM (inactive); in [12], > 100 µM (inactive); in [13], 53.6 µM (inactive); in assay [14], 92.5 µM (inactive). Moreover, the GI50 in assay [15], in [16] and in assay [17] was > 100 µM (inactive) each time.

Take `Oc1ccc(-c2nc3cc(C(F)(F)F)ccc3s2)cc1`: the GI50 in assay [1] was 18.8 µM (inactive); in [2], 15.5 µM (inactive); in assay [4], 18.9 µM (inactive); in [5], 13.9 µM (inactive); in assay [6], 19.5 µM (inactive); in assay [7], 10.1 µM. Besides, the GI50 in [8] is 16.1 µM (inactive); in assay [9], 16.7 µM (inactive); in assay [11] it was 27.2 µM (inactive); in assay [12] it was 15.4 µM (inactive); in [18], 17.2 µM (inactive); in assay [13], 12.6 µM (inactive). The GI50 in assay [20] is 10.2 µM (inactive); in assay [14] it was 15.9 µM (inactive); in assay [19], 13.6 µM (inactive); in assay [15], 11.2 µM (inactive); in assay [17], 1.77 µM (inactive).

Consider `Nc1nc(N)c2cc(Sc3ccc4nc(N)nc(N)c4c3)ccc2n1`, for which the GI50 was 10.9 µM (inactive) in [1]; > 100 µM (inactive) in [2]; > 100 µM (inactive) in assay [3]; 0.0933 µM (active) in assay [4]; > 100 µM (inactive) in [6]; 0.659 µM in assay [7]. In addition, the GI50 in assay [8] was > 100 µM (inactive); in assay [9] it was 4.89 µM (inactive); in [10] it was 0.558 µM (active); in [11], 0.0524 µM (active); in assay [12], < 0.0145 µM (active); in [18], > 100 µM (inactive). Further, the GI50 was > 100 µM (inactive) in [19], 0.514 µM (active) in assay [15], > 100 µM (inactive) in assay [16] and > 100 µM (inactive) in [17].

Consider `O=NN1CCN=C1c1ccc([N+](=O)[O-])cc1`, for which the GI50 in assay [1], in assay [2], in assay [3], in [4], in [5] and in assay [6] was > 100 µM (inactive) throughout. The GI50 in assay [7] is more than 100 µM; in assay [8] it was > 100 µM (inactive); in [9], > 100 µM (inactive); in [10], > 100 µM (inactive); in assay [11], > 100 µM (inactive); in assay [12], > 100 µM (inactive). In addition, the GI50 in [18] was > 100 µM (inactive); in [13], > 100 µM (inactive); in assay [14], > 100 µM (inactive); in assay [19], 66.2 µM (inactive); in assay [15], > 100 µM (inactive); in [16], > 100 µM (inactive).
